Laboratory results from paper PMC7316778 (Nature Communications, 2020).
Several values for one entry are separate records, joined by “and”; a condition that tells them apart may be missing. Equal entries are not always repeated. Where two headings read alike, the source gives them in different places.

Tests used:
FES^WT = molecular target: T1, FES^WT (Homo sapiens, UniProt P07332); assay: PamChip microarray peptide phosphorylation; assay type: biochemical; settings: Figure 7f, WT + WEL028, n 3
T1 construct: human FES cDNA encoding residues 448–822 or human FER cDNA encoding residues 448–820 was amplified by PCR; made in house; host or cells: E. coli BL21(DE3), co-expressing YopH phosphatase

CDK16 (PCTK1)/cyclin Y = CDK16 (PCTK1)/cyclin Y (Homo sapiens, UniProt Q00536); assay: SelectScreen kinase assay
Procedure: (§1) Selectivity profiling assays were performed by the Invitrogen SelectScreen™ Services. […] The concentration of ATP was selected to be equal to the KM, unless indicated otherwise.

MAP2K2 (MEK2) = MAP2K2 (MEK2) (Homo sapiens, UniProt P36507); assay: SelectScreen kinase assay
Procedure: as §1

MAP2K6 (MKK6) = molecular target: T2, MAP2K6 (MKK6) (Homo sapiens, UniProt P52564); assay: SelectScreen kinase assay
T2 sequence (P52564 1-334): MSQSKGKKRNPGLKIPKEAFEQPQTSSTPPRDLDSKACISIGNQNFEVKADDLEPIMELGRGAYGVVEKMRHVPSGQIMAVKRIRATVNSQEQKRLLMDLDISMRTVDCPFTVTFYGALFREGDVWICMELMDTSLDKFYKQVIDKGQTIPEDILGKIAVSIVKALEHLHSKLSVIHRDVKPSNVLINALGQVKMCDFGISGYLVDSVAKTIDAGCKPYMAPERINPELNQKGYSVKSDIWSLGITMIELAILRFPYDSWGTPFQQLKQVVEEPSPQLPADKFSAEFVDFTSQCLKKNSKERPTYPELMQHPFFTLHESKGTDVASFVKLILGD
Procedure: as §1

NUAK1 (ARK5) = molecular target: T3, NUAK1 (ARK5) (Homo sapiens, UniProt O60285); assay: SelectScreen kinase assay
T3 sequence (O60285 1-661): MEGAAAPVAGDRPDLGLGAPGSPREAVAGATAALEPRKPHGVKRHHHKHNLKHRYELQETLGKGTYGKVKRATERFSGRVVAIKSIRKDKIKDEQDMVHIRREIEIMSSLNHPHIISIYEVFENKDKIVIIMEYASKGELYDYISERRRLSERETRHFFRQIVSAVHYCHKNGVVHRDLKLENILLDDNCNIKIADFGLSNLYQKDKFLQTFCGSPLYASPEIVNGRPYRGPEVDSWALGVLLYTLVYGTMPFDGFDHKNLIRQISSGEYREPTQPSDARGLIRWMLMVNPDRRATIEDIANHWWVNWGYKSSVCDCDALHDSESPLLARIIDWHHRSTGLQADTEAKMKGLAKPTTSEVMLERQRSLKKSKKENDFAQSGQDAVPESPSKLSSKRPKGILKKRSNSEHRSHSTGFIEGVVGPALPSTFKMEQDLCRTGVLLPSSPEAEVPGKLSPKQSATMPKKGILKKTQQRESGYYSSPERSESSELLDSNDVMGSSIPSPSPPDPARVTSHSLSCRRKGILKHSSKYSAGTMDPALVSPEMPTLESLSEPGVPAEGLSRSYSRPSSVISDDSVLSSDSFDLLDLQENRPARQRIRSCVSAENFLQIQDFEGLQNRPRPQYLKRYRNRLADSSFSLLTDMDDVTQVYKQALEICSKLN
Procedure: as §1

PAK4 = PAK4 (Homo sapiens, UniProt O96013); assay: SelectScreen kinase assay
Procedure: as §1

TESK1 = TESK1 (Homo sapiens, UniProt Q15569); assay: SelectScreen kinase assay
Procedure: as §1

TGFBR2 = TGFBR2 (Homo sapiens, UniProt P37173); assay: SelectScreen kinase assay
Procedure: as §1

TNIK = TNIK (Homo sapiens, UniProt Q9UKE5); assay: SelectScreen kinase assay
Procedure: as §1

ULK3 = molecular target: T4, ULK3 (Homo sapiens, UniProt Q6PHR2); assay: SelectScreen kinase assay
T4 sequence (Q6PHR2 1-472): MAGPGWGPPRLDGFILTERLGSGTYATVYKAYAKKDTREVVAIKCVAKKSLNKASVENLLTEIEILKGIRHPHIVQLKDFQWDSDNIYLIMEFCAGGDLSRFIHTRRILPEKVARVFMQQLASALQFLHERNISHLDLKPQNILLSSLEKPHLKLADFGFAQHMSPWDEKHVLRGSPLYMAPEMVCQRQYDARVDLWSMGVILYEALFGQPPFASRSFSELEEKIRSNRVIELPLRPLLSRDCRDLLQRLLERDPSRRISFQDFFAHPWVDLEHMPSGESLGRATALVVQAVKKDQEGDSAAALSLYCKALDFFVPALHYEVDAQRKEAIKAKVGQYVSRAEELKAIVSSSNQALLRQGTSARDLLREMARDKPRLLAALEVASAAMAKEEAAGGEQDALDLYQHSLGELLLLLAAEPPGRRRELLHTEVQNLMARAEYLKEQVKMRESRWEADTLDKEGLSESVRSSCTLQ
Procedure: as §1

[1] = 1 h, 1 μM WEL028, 1 h preincubation
[2] = 1 h, log[inhibitor] (M) -5.00, ZLYTE, ATP 100
[3] = 1 h, log[inhibitor] (M) -5.48, ZLYTE, ATP 100
[4] = 1 h, log[inhibitor] (M) -5.95, ZLYTE, ATP 100
[5] = 1 h, log[inhibitor] (M) -6.43, ZLYTE, ATP 100
[6] = 1 h, log[inhibitor] (M) -6.91, ZLYTE, ATP 100
[7] = 1 h, log[inhibitor] (M) -7.86, ZLYTE, ATP 100
[8] = 1 h, log[inhibitor] (M) -8.82, ZLYTE, ATP 100
[9] = IC50 on that kinase divided by IC50 on FES^S700C
[10] = 1 µM, LanthaScreen Binding, listed as WEL028, 1 µM
[11] = read-out: Inhibition at 1 µM (%), 1 µM, LanthaScreen Binding

PAK4, sequence (O96013 whole entry): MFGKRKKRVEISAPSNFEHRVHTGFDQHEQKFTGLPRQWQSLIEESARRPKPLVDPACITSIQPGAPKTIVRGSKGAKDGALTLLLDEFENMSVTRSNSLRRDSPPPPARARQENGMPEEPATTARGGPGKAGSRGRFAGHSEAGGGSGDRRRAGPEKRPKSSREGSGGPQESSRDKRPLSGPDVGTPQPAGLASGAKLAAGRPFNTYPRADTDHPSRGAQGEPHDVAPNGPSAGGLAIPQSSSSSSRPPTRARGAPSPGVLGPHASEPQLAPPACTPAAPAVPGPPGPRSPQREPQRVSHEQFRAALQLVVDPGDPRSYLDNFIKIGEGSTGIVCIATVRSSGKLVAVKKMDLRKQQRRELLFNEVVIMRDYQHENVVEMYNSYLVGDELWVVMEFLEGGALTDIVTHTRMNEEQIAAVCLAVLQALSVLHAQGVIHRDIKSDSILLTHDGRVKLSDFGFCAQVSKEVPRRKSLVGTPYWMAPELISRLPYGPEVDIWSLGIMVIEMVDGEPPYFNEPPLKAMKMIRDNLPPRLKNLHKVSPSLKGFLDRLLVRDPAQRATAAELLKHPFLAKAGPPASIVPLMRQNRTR
T1 sequence (P07332 448-822): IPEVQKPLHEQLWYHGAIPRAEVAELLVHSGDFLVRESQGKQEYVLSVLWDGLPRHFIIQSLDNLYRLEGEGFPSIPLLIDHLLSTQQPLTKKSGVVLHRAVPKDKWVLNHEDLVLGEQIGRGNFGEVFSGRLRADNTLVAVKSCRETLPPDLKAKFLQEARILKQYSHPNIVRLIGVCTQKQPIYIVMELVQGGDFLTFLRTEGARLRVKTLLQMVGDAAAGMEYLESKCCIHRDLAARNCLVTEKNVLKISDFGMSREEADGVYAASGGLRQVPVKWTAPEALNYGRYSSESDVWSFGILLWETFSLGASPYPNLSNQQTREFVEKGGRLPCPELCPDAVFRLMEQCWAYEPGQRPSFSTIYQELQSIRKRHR
TGFBR2, sequence (P37173 23-567): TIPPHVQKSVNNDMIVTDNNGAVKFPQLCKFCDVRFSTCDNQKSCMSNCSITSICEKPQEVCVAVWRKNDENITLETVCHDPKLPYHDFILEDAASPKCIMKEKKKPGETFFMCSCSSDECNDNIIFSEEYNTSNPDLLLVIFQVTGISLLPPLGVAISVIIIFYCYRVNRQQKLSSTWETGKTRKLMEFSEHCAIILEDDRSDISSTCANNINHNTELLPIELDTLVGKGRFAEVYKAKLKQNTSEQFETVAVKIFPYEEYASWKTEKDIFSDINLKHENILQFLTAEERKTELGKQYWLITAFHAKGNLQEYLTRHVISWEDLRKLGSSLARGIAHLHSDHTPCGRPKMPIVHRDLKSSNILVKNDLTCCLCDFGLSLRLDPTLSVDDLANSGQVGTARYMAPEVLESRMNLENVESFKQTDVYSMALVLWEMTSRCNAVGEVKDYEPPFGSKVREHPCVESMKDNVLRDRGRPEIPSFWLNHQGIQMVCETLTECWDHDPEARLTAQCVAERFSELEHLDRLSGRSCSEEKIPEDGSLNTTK
TNIK, sequence (Q9UKE5 whole entry): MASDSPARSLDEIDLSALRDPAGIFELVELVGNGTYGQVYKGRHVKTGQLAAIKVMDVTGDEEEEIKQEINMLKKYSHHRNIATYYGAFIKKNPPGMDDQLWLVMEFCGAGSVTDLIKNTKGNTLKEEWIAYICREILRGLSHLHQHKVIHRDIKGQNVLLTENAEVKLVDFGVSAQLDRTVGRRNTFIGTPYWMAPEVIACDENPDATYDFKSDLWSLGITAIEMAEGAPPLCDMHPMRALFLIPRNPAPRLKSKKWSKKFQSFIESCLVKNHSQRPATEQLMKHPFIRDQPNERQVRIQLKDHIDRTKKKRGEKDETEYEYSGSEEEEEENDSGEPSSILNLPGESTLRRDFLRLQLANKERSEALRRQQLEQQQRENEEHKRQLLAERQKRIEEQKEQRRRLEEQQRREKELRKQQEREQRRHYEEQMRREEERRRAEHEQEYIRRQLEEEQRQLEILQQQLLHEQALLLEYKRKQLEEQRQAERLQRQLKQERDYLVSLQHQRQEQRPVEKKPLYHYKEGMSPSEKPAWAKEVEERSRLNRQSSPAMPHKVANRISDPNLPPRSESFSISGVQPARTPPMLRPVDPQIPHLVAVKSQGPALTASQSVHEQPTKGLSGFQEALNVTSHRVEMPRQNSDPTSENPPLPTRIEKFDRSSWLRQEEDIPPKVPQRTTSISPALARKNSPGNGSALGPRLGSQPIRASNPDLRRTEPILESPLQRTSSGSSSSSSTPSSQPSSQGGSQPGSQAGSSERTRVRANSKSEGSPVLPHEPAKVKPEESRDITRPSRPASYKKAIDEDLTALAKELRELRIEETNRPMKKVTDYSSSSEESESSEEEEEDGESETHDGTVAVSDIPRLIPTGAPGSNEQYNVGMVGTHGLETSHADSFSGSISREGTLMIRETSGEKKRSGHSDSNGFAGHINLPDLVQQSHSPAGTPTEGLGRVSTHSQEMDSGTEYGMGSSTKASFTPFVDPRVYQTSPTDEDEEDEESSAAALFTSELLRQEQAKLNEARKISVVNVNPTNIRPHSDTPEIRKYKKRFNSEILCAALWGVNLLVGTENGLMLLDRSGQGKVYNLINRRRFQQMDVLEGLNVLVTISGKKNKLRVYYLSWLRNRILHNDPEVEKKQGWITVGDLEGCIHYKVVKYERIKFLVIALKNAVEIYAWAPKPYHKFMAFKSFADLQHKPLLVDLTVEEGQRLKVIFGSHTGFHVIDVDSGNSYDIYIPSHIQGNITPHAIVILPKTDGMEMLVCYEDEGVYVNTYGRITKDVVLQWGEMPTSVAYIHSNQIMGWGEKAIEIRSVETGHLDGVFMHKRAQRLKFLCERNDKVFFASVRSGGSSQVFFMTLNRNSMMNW
MAP2K2 (MEK2), sequence (P36507 whole entry, species assumed): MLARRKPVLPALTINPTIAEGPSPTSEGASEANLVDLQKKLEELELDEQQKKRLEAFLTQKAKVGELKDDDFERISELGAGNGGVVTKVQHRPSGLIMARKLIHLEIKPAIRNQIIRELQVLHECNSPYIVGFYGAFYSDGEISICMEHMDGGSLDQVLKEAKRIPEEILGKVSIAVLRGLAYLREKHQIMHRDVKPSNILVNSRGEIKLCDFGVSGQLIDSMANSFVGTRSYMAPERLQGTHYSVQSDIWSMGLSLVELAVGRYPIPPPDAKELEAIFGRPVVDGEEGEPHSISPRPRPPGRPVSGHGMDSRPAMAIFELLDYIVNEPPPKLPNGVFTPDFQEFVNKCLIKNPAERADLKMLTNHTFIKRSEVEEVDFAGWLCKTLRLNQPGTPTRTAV
TESK1, sequence (Q15569 whole entry): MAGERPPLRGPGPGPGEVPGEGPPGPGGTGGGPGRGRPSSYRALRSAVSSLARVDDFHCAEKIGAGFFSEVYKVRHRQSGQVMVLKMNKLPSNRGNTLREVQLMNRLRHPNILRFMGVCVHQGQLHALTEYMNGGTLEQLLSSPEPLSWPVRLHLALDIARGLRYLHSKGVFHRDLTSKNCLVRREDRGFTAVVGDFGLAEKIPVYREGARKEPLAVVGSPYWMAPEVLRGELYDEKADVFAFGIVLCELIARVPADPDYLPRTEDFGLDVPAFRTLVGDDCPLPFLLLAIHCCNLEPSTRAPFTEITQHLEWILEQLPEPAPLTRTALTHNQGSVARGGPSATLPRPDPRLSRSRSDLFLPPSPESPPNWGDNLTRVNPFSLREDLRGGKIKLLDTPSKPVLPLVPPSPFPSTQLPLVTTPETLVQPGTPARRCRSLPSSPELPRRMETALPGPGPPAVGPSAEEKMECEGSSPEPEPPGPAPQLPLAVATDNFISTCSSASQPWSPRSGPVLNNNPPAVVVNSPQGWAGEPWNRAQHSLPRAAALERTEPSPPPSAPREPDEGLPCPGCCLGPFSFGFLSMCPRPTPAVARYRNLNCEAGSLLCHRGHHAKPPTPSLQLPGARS
CDK16 (PCTK1)/cyclin Y, sequence (Q00536 whole entry): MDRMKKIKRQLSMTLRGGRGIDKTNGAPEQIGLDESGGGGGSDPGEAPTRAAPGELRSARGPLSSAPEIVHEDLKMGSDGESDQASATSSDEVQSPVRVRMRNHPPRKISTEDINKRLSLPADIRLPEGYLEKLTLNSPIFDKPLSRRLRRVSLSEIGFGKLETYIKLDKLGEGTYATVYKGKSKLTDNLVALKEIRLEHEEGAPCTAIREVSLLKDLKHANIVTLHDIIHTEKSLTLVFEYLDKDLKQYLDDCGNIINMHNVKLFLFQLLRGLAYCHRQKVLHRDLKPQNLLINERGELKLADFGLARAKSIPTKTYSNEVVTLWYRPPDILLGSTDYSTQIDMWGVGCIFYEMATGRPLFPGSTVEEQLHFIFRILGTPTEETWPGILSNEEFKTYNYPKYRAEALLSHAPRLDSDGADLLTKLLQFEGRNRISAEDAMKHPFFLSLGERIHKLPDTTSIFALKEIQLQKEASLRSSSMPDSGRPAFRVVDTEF
CDK16 (PCTK1)/cyclin Y, sequence (Q8ND76 whole entry partner): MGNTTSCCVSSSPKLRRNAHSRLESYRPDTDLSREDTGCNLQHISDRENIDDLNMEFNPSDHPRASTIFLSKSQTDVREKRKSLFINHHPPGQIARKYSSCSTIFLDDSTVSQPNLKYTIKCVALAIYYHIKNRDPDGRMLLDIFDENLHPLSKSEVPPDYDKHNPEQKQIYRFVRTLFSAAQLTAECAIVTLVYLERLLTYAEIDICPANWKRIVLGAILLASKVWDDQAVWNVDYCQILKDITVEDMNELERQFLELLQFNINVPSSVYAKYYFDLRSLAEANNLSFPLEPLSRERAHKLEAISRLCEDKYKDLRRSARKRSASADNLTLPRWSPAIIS

C#CCOc1ccc(Nc2ncc(Cl)c(Nc3ccccc3NC(=O)C=C)n2)c(OC)c1 [Compound 6]
Mean signal, time course (FES^WT; time 0 min): -37.0
Mean signal, time course (FES^WT; time 5 min): 24.0
Mean signal, time course (FES^WT; time 10 min): 80.0
Mean signal, time course (FES^WT; time 15 min): 138.0
Mean signal, time course (FES^WT; time 20 min): 193.0
Mean signal, time course (FES^WT; time 25 min): 246.0
Mean signal, time course (FES^WT; time 30 min): 301.0
Mean signal, time course (FES^WT; time 35 min): 361.0
Mean signal, time course (FES^WT; time 40 min): 414.0
Mean signal, time course (FES^WT; time 45 min): 472.0
Mean signal, time course (FES^WT; time 50 min): 524.0
Mean signal, time course (FES^WT; time 55 min): 585.0
Mean signal, time course (FES^WT; time 60 min): 641.0
inhibition at 1 µM (CDK16 (PCTK1)/cyclin Y; [1]): 0%
Inhibition at 1 µM (%) (CDK16 (PCTK1)/cyclin Y; CDK16 (PCTK1)/cyclin Y, 1 µM, LanthaScreen Binding, listed as WEL028, 1 µM): -1%
IC50 (MAP2K2 (MEK2)): 251 nM
inhibition at 1 µM (MAP2K2 (MEK2); [1]): 106%
inhibition at 10 µM (MAP2K2 (MEK2); [2]): 104%
inhibition at 3.311 µM (MAP2K2 (MEK2); [3]): 103%
inhibition at 1.122 µM (MAP2K2 (MEK2); [4]): 99%
inhibition at 0.3715 µM (MAP2K2 (MEK2); [5]): 68%
inhibition at 0.123 µM (MAP2K2 (MEK2); [6]): 38%
inhibition at 0.04074 µM (MAP2K2 (MEK2); 1 h, log[inhibitor] (M) -7.39, ZLYTE, ATP 100): 33%
inhibition at 0.0138 µM (MAP2K2 (MEK2); [7]): 27%
inhibition at 0.001514 µM (MAP2K2 (MEK2); [8]): 16%
inhibition at 0.0004898 µM (MAP2K2 (MEK2); 1 h, log[inhibitor] (M) -9.31, ZLYTE, ATP 100): 10%
inhibition at 0.004571 µM (MAP2K2 (MEK2); 1 h, log[inhibitor] (M) -[…], ZLYTE, ATP 100): 20%
Apparent fold selectivity (MAP2K2 (MEK2); [9]): 54 fold
inhibition at 1 µM (MAP2K2 (MEK2); read-out: Inhibition at 1 µM (%), MAP2K2 (MEK2), 1 µM, ZLYTE, ATP 100): 109%
IC50 (MAP2K6 (MKK6)): 316 nM
inhibition at 1 µM (MAP2K6 (MKK6); [1]): 73%
inhibition at 10 µM (MAP2K6 (MKK6); [2]): 92%
inhibition at 3.311 µM (MAP2K6 (MKK6); [3]): 96%
inhibition at 1.122 µM (MAP2K6 (MKK6); [4]): 80%
inhibition at 0.3715 µM (MAP2K6 (MKK6); [5]): 51%
inhibition at 0.123 µM (MAP2K6 (MKK6); [6]): 29%
inhibition at 0.0138 µM (MAP2K6 (MKK6); [7]): 11%
inhibition at 0.001514 µM (MAP2K6 (MKK6); [8]): 4%
Apparent fold selectivity (MAP2K6 (MKK6); [9]): 68 fold
inhibition at 1 µM (MAP2K6 (MKK6); read-out: Inhibition at 1 µM (%), MAP2K6 (MKK6), 1 µM, ZLYTE, ATP 100): 73%
Inhibition (%) (NUAK1 (ARK5); 1 μM WEL028, 1 h preincubation): 35%
Inhibition at 1 µM (%) (NUAK1 (ARK5); NUAK1 (ARK5), 1 µM, Adapta, ATP Km app, listed as WEL028, 1 µM): 41%
inhibition at 1 µM (NUAK1 (ARK5); read-out: Inhibition at 1 µM (%), NUAK1 (ARK5), 1 µM, Adapta, ATP Km app): 30%
inhibition at 1 µM (PAK4; [1]): -4%
Inhibition at 1 µM (%) (PAK4; PAK4, 1 µM, ZLYTE, ATP Km app, listed as WEL028, 1 µM): -8% and 1%
Inhibition at 1 µM (%) (TESK1; [10]): 9%
inhibition at 1 µM (TESK1; [1]): 10%
inhibition at 1 µM (TESK1; [11]): 10%
Inhibition at 1 µM (%) (TGFBR2; [10]): 11%
inhibition at 1 µM (TGFBR2; [1]): 14%
inhibition at 1 µM (TGFBR2; [11]): 17%
Inhibition at 1 µM (%) (TNIK; [10]): 4%
inhibition at 1 µM (TNIK; [1]): 5%
inhibition at 1 µM (TNIK; [11]): 6%
Inhibition (%) (ULK3; 1 μM WEL028, 1 h preincubation): 26%
Inhibition at 1 µM (%) (ULK3; [10]): 27%
inhibition at 1 µM (ULK3; [11]): 25%
